Assay results published in patent publication US20230340011A1 (Asteroid Therapeutics, priority 2022, published 2023).

These molecules were tested against LXRβ (Homo sapiens (Human), UniProt P55055) (assay: In vitro assay LXRβ: PathHunter NHR CHO cells, LXRβ / Steroid Receptor Co-activator Peptide enzyme fragment complementation). Conditions: PathHunter NHR CHO cells, full-length human LXRβ and SRCP, chemiluminescent signal; read-out: LXRβ PPI.
Assay type: cell-based
Description: PathHunter NHR CHO cells stably transfected with tagged full-length human LXRβ and a nuclear fusion protein containing Steroid Receptor Co-activator Peptide (SRCP). The full-length human LXRβ was tagged with the ProLink™ component of the DiscoverX Enzyme Fragment Complementation (EFC) system and the SRCP domain is fused to the enzyme acceptor component (EA) expressed in the nucleus. Cells were seeded in a total volume of 20 μL into white walled, 384-well microplates and incubated at 37° C. overnight prior to testing. Assay media contained charcoal-dextran filtered serum to reduce the level of hormones present. Final assay vehicle concentration was 1%. […] Microplates were read following signal generation with a PerkinElmer Envision instrument for chemiluminescent signal detection.

Chain of LXRβ (P55055 whole entry, the tested form may be a part): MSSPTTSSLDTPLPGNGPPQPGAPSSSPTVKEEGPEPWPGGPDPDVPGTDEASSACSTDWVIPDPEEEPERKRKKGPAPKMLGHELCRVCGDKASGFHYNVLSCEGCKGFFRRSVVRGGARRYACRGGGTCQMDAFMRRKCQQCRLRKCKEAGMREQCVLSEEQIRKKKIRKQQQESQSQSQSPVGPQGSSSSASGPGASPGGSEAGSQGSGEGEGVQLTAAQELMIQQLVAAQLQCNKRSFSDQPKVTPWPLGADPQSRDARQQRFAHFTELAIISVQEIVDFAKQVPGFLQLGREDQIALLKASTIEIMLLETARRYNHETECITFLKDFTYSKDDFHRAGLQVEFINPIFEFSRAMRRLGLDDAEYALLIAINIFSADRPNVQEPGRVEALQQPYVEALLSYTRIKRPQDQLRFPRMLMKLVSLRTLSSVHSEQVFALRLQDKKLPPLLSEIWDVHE

Compound	EC50
CC(=O)N1CCN(C(=O)CC[C@@H](C)[C@H]2CC[C@H]3[C@@H]4CC=C5C[C@@H](O)CC[C@]5(C)[C@H]4CC[C@]23C)[C@@H](C)C1 [Example 428, (4R)-4-[(1R,3aS,3bS,7S,9aR,9bS,11aR)-7-hydroxy-9a,11a-dimethyl-1H,2H,3H,3aH,3bH,4H,6H,7H,8H,9H,9aH,9bH,10H,11H,11aH-cyclopenta[a]phenanthren-1-yl]-1-[(2S)-4-acetyl-2-methylpiperazin-1-yl]pentan-1-one]	> 10 µM
CC(=O)N1CCN(C(=O)CC[C@@H](C)[C@H]2CC[C@H]3[C@@H]4CC=C5C[C@@H](O)CC[C@]5(C)[C@H]4CC[C@]23C)[C@H](C)C1 [Example 275, (4R)-4-[(1R,3aS,3bS,7S,9aR,9bS,11aR)-7-hydroxy-9a,11a-dimethyl-1H,2H,3H,3aH,3bH,4H,6H,7H,8H,9H,9aH,9bH,10H,11H,11aH-cyclopenta[a]phenanthren-1-yl]-1-[(2R)-4-acetyl-2-methylpiperazin-1-yl]pentan-1-one]	> 10 µM
COCCNC(=O)OC[C@@H](C)[C@H]1CC[C@H]2[C@@H]3CC=C4C[C@@H](O)CC[C@]4(C)[C@H]3CC[C@]12C [Example 460, (2S)-2-[(1R,3aS,3bS,7S,9aR,9bS,11aS)-7-hydroxy-9a,11a-dimethyl-1H,2H,3H,3aH,3bH,4H,6H,7H,8H,9H,9aH,9bH,10H,11H,11aH-cyclopenta[a]phenanthren-1-yl]propyl N-(2-methoxyethyl)carbamate]	> 10 µM
C[C@H](CCC(=O)N1CCC(Oc2cnccn2)CC1)[C@H]1CC[C@H]2[C@@H]3CC=C4C[C@@H](O)CC[C@]4(C)[C@H]3CC[C@]12C [Example 220, (R)-4-((3S,8S,9S,10R,13R,14S,17R)-3-hydroxy-10,13-dimethyl-2,3,4,7,8,9,10,11,12,13,14,15,16,17-tetradecahydro-1H-cyclopenta[a]phenanthren-17-yl)-1-(4-(pyrazin-2-yloxy)piperidin-1-yl)pentan-1-one]	1 to 10 µM
C[C@H](CCc1ccnnc1)[C@H]1CC[C@H]2[C@@H]3CC=C4C[C@@H](O)CC[C@]4(C)[C@H]3CC[C@]12C [Example 170, (1R,3aS,3bS,7S,9aR,9bS,11aR)-9a,11a-dimethyl-1-[(2R)-4-(pyridazin-4-yl)butan-2-yl]-1H,2H,3H,3aH,3bH,4H,6H,7H,8H,9H,9aH,9bH,10H,11H,11aH-cyclopenta[a]phenanthren-7-ol]	> 10 µM
CC(=O)N1CCN(C(=O)CC[C@@H](C)[C@H]2CC[C@H]3[C@@H]4CC=C5C[C@@H](O)CC[C@]5(C)[C@H]4CC[C@]23C)C[C@@H]1C [Example 427, (R)-1-((S)-4-acetyl-3-methylpiperazin-1-yl)-4-((3S,8S,9S,10R,13R,14S,17R)-3-hydroxy-10,13-dimethyl-2,3,4,7,8,9,10,11,12,13,14,15,16,17-tetradecahydro-1H-cyclopenta[a]phenanthren-17-yl)pentan-1-one]	> 10 µM
C[C@H](CCC(=O)N1CCN(Cc2cncnc2)CC1)[C@H]1CC[C@H]2[C@@H]3CC=C4C[C@@H](O)CC[C@]4(C)[C@H]3CC[C@]12C [Example 224, (4R)-4-[(1R,3aS,3bS,7S,9aR,9bS,11aR)-7-hydroxy-9a,11a-dimethyl-1H,2H,3H,3aH,3bH,4H,6H,7H,8H,9H,9aH,9bH,10H,11H,11aH-cyclopenta[a]phenanthren-1-yl]-1-{4-[(pyrimidin-5-yl)methyl]piperazin-1-yl}pentan-1-one]	> 10 µM
C[C@H]1CON(C(=O)CC[C@@H](C)[C@H]2CC[C@H]3[C@@H]4CC=C5C[C@@H](O)CC[C@]5(C)[C@H]4CC[C@]23C)C1 [Example 58, (R)-4-((3S,8S,9S,10R,13R,14S,17R)-3-hydroxy-10,13-dimethyl-2,3,4,7,8,9,10,11,12,13,14,15,16,17-tetradecahydro-1H-cyclopenta[a]phenanthren-17-yl)-1-((R)-4-methylisoxazolidin-2-yl)pentan-1-one]	0.25 to 1 µM
C[C@H](CCC(=O)N1CCC(CNS(C)(=O)=O)CC1)[C@H]1CC[C@H]2[C@@H]3CC=C4C[C@@H](O)CC[C@]4(C)[C@H]3CC[C@]12C [Example 232, N-((1-((R)-4-((3S,8S,9S,10R,13R,14S,17R)-3-hydroxy-10,13-dimethyl-2,3,4,7,8,9,10,11,12,13,14,15,16,17-tetradecahydro-1H-cyclopenta[a]phenanthren-17-yl)pentanoyl)piperidin-4-yl)methyl)methanesulfonamide]	> 10 µM
CCCON(C)C(=O)CC[C@@H](C)[C@H]1CC[C@H]2[C@@H]3CC=C4C[C@@H](O)CC[C@]4(C)[C@H]3CC[C@]12C [Example 12, (R)-4-((3S,8S,9S,10R,13R,14S,17R)-3-hydroxy-10,13-dimethyl-2,3,4,7,8,9,10,11,12,13,14,15,16,17-tetradecahydro-1H-cyclopenta[a]phenanthren-17-yl)-N-methyl-N-propoxypentanamide]	0.25 to 1 µM
C[C@H](CCC(=O)N1CCN(C(=O)OCCO)CC1)[C@H]1CC[C@H]2[C@@H]3CC=C4C[C@@H](O)CC[C@]4(C)[C@H]3CC[C@]12C [Example 281, 2-hydroxyethyl 4-[(4R)-4-[(1R,3aS,3bS,7S,9aR,9bS,11aR)-7-hydroxy-9a,11a-dimethyl-1H,2H,3H,3aH,3bH,4H,6H,7H,8H,9H,9aH,9bH,10H,11H,11aH-cyclopenta[a]phenanthren-1-yl]pentanoyl]piperazine-1-carboxyla]	> 10 µM
CC(NC(=O)C(C)(C)O)C1CCN(C(=O)CC[C@@H](C)[C@H]2CC[C@H]3[C@@H]4CC=C5C[C@@H](O)CC[C@]5(C)[C@H]4CC[C@]23C)CC1 (stereo partly drawn) [Example 227, 2-hydroxy-N-(1-(1-((R)-4-((3S,8S,9S,10R,13R,14S,17R)-3-hydroxy-10,13-dimethyl-2,3,4,7,8,9,10,11,12,13,14,15,16,17-tetradecahydro-1H-cyclopenta[a]phenanthren-17-yl)pentanoyl)piperidin-4-yl)ethyl)-2-methylpropanamide]	> 10 µM
COCCCON(C)C(=O)CC[C@@H](C)[C@H]1CC[C@H]2[C@@H]3CC=C4C[C@@H](O)CC[C@]4(C)[C@H]3CC[C@]12C [Example 31, (R)-4-((3S,8S,9S,10R,13R,14S,17R)-3-hydroxy-10,13-dimethyl-2,3,4,7,8,9,10,11,12,13,14,15,16,17-tetradecahydro-1H-cyclopenta[a]phenanthren-17-yl)-N-(3-methoxypropoxy)-N-methylpentanamide]	1 to 10 µM
C[C@H](CCC(=O)N1CCC(Oc2ccncc2)CC1)[C@H]1CC[C@H]2[C@@H]3CC=C4C[C@@H](O)CC[C@]4(C)[C@H]3CC[C@]12C [Example 301, (4R)-4-[(1R,3aS,3bS,7S,9aR,9bS,11aR)-7-hydroxy-9a,11a-dimethyl-1H,2H,3H,3aH,3bH,4H,6H,7H,8H,9H,9aH,9bH,10H,11H,11aH-cyclopenta[a]phenanthren-1-yl]-1-[4-(pyridin-4-yloxy)piperidin-1-yl]pentan-1-one]	> 10 µM
C[C@H](CCC(=O)N1CCC(C)(O)CC1)[C@H]1CC[C@H]2[C@@H]3CC=C4C[C@@H](O)CC[C@]4(C)[C@H]3CC[C@]12C [Example 6, (R)-4-((3S,8S,9S,10R,13R,14S,17R)-3-hydroxy-10,13-dimethyl-2,3,4,7,8,9,10,11,12,13,14,15,16,17-tetradecahydro-1H-cyclopenta[a]phenanthren-17-yl)-1-(4-hydroxy-4-methylpiperidin-1-yl)pentan-1-one]	0.25 to 1 µM
CNS(=O)(=O)C1CCN(C(=O)CC[C@@H](C)[C@H]2CC[C@H]3[C@@H]4CC=C5C[C@@H](O)CC[C@]5(C)[C@H]4CC[C@]23C)CC1 [Example 291, 1-[(4R)-4-[(1R,3aS,3bS,7S,9aR,9bS,11aR)-7-hydroxy-9a,11a-dimethyl-1H,2H,3H,3aH,3bH,4H,6H,7H,8H,9H,9aH,9bH,10H,11H,11aH-cyclopenta[a]phenanthren-1-yl]pentanoyl]-N-methylpiperidine-4-sulfonamide]	> 10 µM
C[C@H](OC(=O)C(N)=O)[C@H]1CC[C@H]2[C@@H]3CC=C4C[C@@H](O)CC[C@]4(C)[C@H]3CC[C@]12C [Example 144, (S)-1-((3S,8S,9S,10R,13S,14S,17S)-3-hydroxy-10,13-dimethyl-2,3,4,7,8,9,10,11,12,13,14,15,16,17-tetradecahydro-1H-cyclopenta[a]phenanthren-17-yl)ethyl 2-amino-2-oxoacetate]	> 10 µM
C[C@H](CCC(=O)N1CCN(c2ccnn2C)CC1)[C@H]1CC[C@H]2[C@@H]3CC=C4C[C@@H](O)CC[C@]4(C)[C@H]3CC[C@]12C [Example 226, (R)-4-((3S,8S,9S,10R,13R,14S,17R)-3-hydroxy-10,13-dimethyl-2,3,4,7,8,9,10,11,12,13,14,15,16,17-tetradecahydro-1H-cyclopenta[a]phenanthren-17-yl)-1-(4-(1-methyl-1H-pyrazol-5-yl)piperazin-1-yl)pentan-1-one]	> 10 µM
C[C@H](CCC(=O)N1CCC(OC(F)(F)F)CC1)[C@H]1CC[C@H]2[C@@H]3CC=C4C[C@@H](O)CC[C@]4(C)[C@H]3CC[C@]12C [Example 251, (4R)-4-[(1R,3aS,3bS,7S,9aR,9bS,11aR)-7-hydroxy-9a,11a-dimethyl-1H,2H,3H,3aH,3bH,4H,6H,7H,8H,9H,9aH,9bH,10H,11H,11aH-cyclopenta[a]phenanthren-1-yl]-1-[4-(trifluoromethoxy)piperidin-1-yl]pentan-1-one]	> 10 µM
CC(=O)N1CCN(C(=O)CC[C@@H](C)[C@H]2CC[C@H]3[C@@H]4CC=C5C[C@@H](O)CC[C@]5(C)[C@H]4CC[C@]23C)C[C@H]1C [Example 278, (R)-1-((R)-4-acetyl-3-methylpiperazin-1-yl)-4-((3S,8S,9S,10R,13R,14S,17R)-3-hydroxy-10,13-dimethyl-2,3,4,7,8,9,10,11,12,13,14,15,16,17-tetradecahydro-1H-cyclopenta[a]phenanthren-17-yl)pentan-1-one]	> 10 µM
